Source: article PMC3034772 (Pharmaceutical research, 2010)
Several values for one entry are separate records, joined by “and”; a condition that tells them apart may be missing. Equal values may be shown once. Read-outs that look alike come from different tables or passages of the source.

Experiments:
[1] = PAMPA; for Pm^7.4: pH 7.4
[2] = In combo PAMPA-BBB model, calculated log Po in situ
[3] = cited from earlier work
[4] = Charge class Q, dominant calculated charge state at pH 7.4; type: physicochemical
[5] = in vivo; cited from earlier work
[6] = for Pm^7.4: pH 7.4
[7] = mouse, in vivo
[8] = in vivo
[9] = mouse, in vivo; cited from earlier work
physchem [10] = test: physchem
physchem [11] = test: physchem; remark: listed apart in the source
[12] = dominant calculated concentration fraction of the drug in a charge state
[13] = difference observed minus calculated, external set, no efflux inhibition

SMILES: COc1ccc(CCN2CCC(Nc3nc4ccccc4n3Cc3ccc(F)cc3)CC2)cc1 [Astemizole]
- log PABL [1]: −3.54
- log Po [1]: −1.39
- log Ppara [1]: −6.54
- Pm^7.4 [1]: 2422
- obs–calc (log Po^in situ) ([2]; efflux inhibition mdr1a(−/−)): −1.2
- obs–calc (log Po^in situ) ([2]; no efflux inhibition): −1.3
- pKa ([3]; ref [46]): 8.60
- pKa ([3]; second pKa column, ref [46]): 5.84
- Q (charge class) [4, 12]: +

SMILES: CCC12CCN(CC3(O)CC3)C(Cc3ccc(O)cc31)C2(C)C (stereo not shown) [Bremazocine]
- PS [5]: 81 10^−4 mLg^−1s^−1
- log PS [5]: −2.09
- log Po ([6]; PAMPA-BBB intrinsic permeability, Type I, collected under 1.5 μL conditions but scaled to the 3 μL level): −2.87
- log PABL ([6]; aqueous boundary layer permeability, Type I, 1.5 μL conditions): −3.00
- obs–calc (log Po^in situ) [2]: 0.4 and 0.2
- log Po^in situ (obs) [7]: −2.76
- Q (charge class) [4]: +
- log Po^in situ (obs) [8]: −2.96
- PS [9]: 129 10^−4 mLg^−1s^−1
- log PS [9]: −1.89

SMILES: O=C1CC2(CCCC2)CC(=O)N1CCCCN1CCN(c2ncccn2)CC1 [Buspirone]
- pKa (physchem [10]; pKa): 7.59
- Q (charge class) [4, 12]: +

SMILES: COc1cccc2c1C(=O)c1c(O)c3c(c(O)c1C2=O)C[C@@](O)(C(C)=O)C[C@@H]3O[C@H]1C[C@H](N)[C@H](O)[C@H](C)O1 [Daunomycin]
- log PABL [1]: −4.38
- log Po [1]: −2.71
- log Ppara [1]: −6.91
- Pm^7.4 [1]: 10
- obs–calc (log Po^in situ) [2]: 0.8
- pKa ([3]; ref [39]): 12.00
- pKa ([3]; second pKa column, ref [39]): 9.70
- Q (charge class) [4]: +

SMILES: CC(C)[C@H](NC(=O)[C@H](CCC(=O)O)NC(=O)[C@H](Cc1ccccc1)NC(=O)[C@@H](C)NC(=O)[C@@H](N)Cc1ccc(O)cc1)C(=O)N[C@H](C(=O)NCC(N)=O)C(C)C [Deltorphin II]
- PS [5]: 0.3 10^−4 mLg^−1s^−1
- log PS [5]: −4.56
- log Po ([6]; PAMPA): −6.51
- Pm^7.4 ([6]; PAMPA): <0.01
- log Po^in situ (obs) [7]: −6.36
- log Po^in situ (obs) [8]: −6.56
- PS [9]: 0.4 10^−4 mLg^−1s^−1
- log PS [9]: −4.36

SMILES: CN(C)CCC=C1c2ccccc2COc2ccccc21 [Doxepin]
- log PABL [1]: −3.13
- log Po [1]: −1.60
- log Ppara [1]: −6.47
- Pm^7.4 [1]: 223
- obs–calc (log Po^in situ) ([2]; no efflux inhibition): 0.3
- pKa ([3]; ref [11]): 9.45
- Q (charge class) [4, 12]: +

SMILES: CN1C[C@H](C(=O)N[C@]2(C)O[C@@]3(O)[C@@H]4CCCN4C(=O)[C@H](Cc4ccccc4)N3C2=O)C=C2c3cccc4[nH]cc(c34)C[C@H]21 [Ergotamine]
- PS [5]: 87 10^−4 mLg^−1s^−1
- log PS [5]: −2.06
- log PABL [1]: −3.73
- log Po [1]: −2.50
- log Ppara [1]: −6.03
- Pm^7.4 [1]: 1823
- obs–calc (log Po^in situ) [2]: 0.1
- Q (charge class) [4]: 0
- log Po^in situ (obs) [8]: −3.82
- pKa (physchem [11]): 9.49

SMILES: CC(C)(C)NC(=O)[C@@H]1CN(Cc2cccnc2)CCN1C[C@@H](O)C[C@@H](Cc1ccccc1)C(=O)N[C@H]1c2ccccc2C[C@H]1O [Indinavir]
- log Po ([6]; PAMPA): −5.17
- obs–calc (log Po^in situ) [2, 13]: −0.4
- obs–calc (log Po^in situ) ([2]; efflux inhibition mdr1a(−/−)): 0.3
- pKa ([3]; ref [11]): 4.91
- Q (charge class) [4, 12]: 0

SMILES: N[C@@H](Cc1ccc(O)c(O)c1)C(=O)O [L-DOPA]
- log PABL [1]: −4.47
- log Po [1]: −7.81
- Pm^7.4 [1]: 0.01
- obs–calc (log Po^in situ) [2, 13]: 0.7 and 0.9
- pKa ([3]; ref [39]): 8.77
- Q (charge class) [4, 12]: ±

SMILES: CN(C)C(=O)C(CCN1CCC(O)(c2ccc(Cl)cc2)CC1)(c1ccccc1)c1ccccc1 [Loperamide]
- log PABL [1]: −3.19
- log Po [1]: −2.67
- log Ppara [1]: −12
- Pm^7.4 [1]: 102
- log Po^in situ (obs) [7]: −2.52
- Q (charge class) [4]: +

SMILES: N[C@@H](Cc1ccc(N(CCCl)CCCl)cc1)C(=O)O [Melphalan]
- PS [5]: 5 10^−4 mLg^−1s^−1
- log PS [5]: −3.28
- log PABL [1]: −4.65
- log Po [1]: −7.51
- log Ppara [1]: −7.71
- Pm^7.4 [1]: 0.03
- obs–calc (log Po^in situ) [2]: 0.0
- Q (charge class) [4]: ±
- log Po^in situ (obs) [8]: −5.27

SMILES: CN1CCCCC1CCN1c2ccccc2Sc2ccc([S+](C)[O-])cc21 (stereo not shown) [Mesoridazine]
- log PABL [1]: −3.26
- log Po [1]: −4.33
- log Ppara [1]: −6.21
- Pm^7.4 [1]: 14
- obs–calc (log Po^in situ) [2, 13]: 0.8
- pKa (physchem [10]; pKa): 7.79
- Q (charge class) [4, 12]: +

SMILES: CN(Cc1cnc2nc(N)nc(N)c2n1)c1ccc(C(=O)N[C@@H](CCC(=O)O)C(=O)O)cc1 [Methotrexate]
- log PABL ([6]; PAMPA): −4.73
- Pm^7.4 ([6]; PAMPA): 0.001
- pKa (physchem [10]; pKa): 5.55
- Q (charge class) [4, 12]: ±

SMILES: Oc1ccc2c3c1O[C@H]1c4[nH]c5ccccc5c4C[C@@]4(O)[C@@H](C2)N(CC2CC2)CC[C@]314 [Naltrindole]
- log Po [1]: −2.23
- log Ppara [1]: −6.20
- Pm^7.4 [1]: 659
- log Po^in situ (obs) [7]: −3.03
- Q (charge class) [4]: +
- PS [9]: 104 10^−4 mLg^−1s^−1
- log PS [9]: −1.98

SMILES: COc1cc2nc(N3CCN(C(=O)c4ccco4)CC3)nc(N)c2cc1OC [Prazosin]
- pKa (physchem [10]; pKa): 6.79

SMILES: CCCN(CCC)S(=O)(=O)c1ccc(C(=O)O)cc1 [Probenecid]
- log PABL [1]: −3.52
- log Po [1]: −2.97
- log Ppara [1]: −6.10
- Pm^7.4 [1]: 0.06
- obs–calc (log Po^in situ) ([2]; efflux inhibition mdr1a(−/−)): −0.6
- obs–calc (log Po^in situ) ([2]; no efflux inhibition): −0.7
- pKa ([3]; ref [38]): 3.16
- Q (charge class) [4, 12]: −

SMILES: OCCOCCN1CCN(C2=Nc3ccccc3Sc3ccccc32)CC1 [Quetiapine]
- log PABL [1]: −3.88
- log Po [1]: −2.98
- log Ppara [1]: −6.02
- Pm^7.4 [1]: 583
- obs–calc (log Po^in situ) [2, 13]: 0.2
- pKa ([3]; ref [38]): 7.30
- pKa ([3]; second pKa column, ref [38]): 2.27
- Q (charge class) [4, 12]: 0

SMILES: CC(C)c1nc(CN(C)C(=O)N[C@H](C(=O)N[C@@H](Cc2ccccc2)C[C@H](O)[C@H](Cc2ccccc2)NC(=O)OCc2cncs2)C(C)C)cs1 [Ritonavir]
- log Po ([6]; PAMPA): −4.24
- Pm^7.4 ([6]; PAMPA): 57
- obs–calc (log Po^in situ) [2, 13]: −0.7 and −0.6
- obs–calc (log Po^in situ) ([2]; efflux inhibition mdr1a(−/−)): 0.0 and 0.2
- pKa (physchem [10]; pKa): 2.42
- Q (charge class) [4, 12]: 0

SMILES: CCCN1C[C@H](C)N([C@H](c2ccc(C(=O)N(CC)CC)cc2)c2cccc(OC)c2)C[C@H]1C [SNC121]
- log Po ([6]; PAMPA): −2.91
- Pm^7.4 ([6]; PAMPA): 201
- log Po^in situ (obs) [7]: −2.96
- Q (charge class) [4]: +
- PS [9]: 363 10^−4 mLg^−1s^−1
- log PS [9]: −1.44

SMILES: CSc1ccc2c(c1)N(CCC1CCCCN1C)c1ccccc1S2 (stereo not shown) [Thioridazine]
- log PABL [1]: −2.84
- log Po [1]: −1.27
- log Ppara [1]: −6.23
- Pm^7.4 [1]: 1972
- obs–calc (log Po^in situ) ([2]; no efflux inhibition): −0.8
- pKa ([3]; ref [11]): 8.82
- Q (charge class) [4, 12]: +

SMILES: CC(=O)CC(c1ccccc1)c1c(O)c2ccccc2oc1=O (stereo not shown) [Warfarin]
- log PABL [1]: −3.04
- log Po [1]: −3.21
- log Ppara [1]: −8.00
- Pm^7.4 [1]: 1.4
- obs–calc (log Po^in situ) [2]: 0.4 and 0.5
- pKa (physchem [10]): 4.75
- Q (charge class) [4, 12]: −

SMILES: Cc1cn([C@H]2C[C@H](N=[N+]=[N-])[C@@H](CO)O2)c(=O)[nH]c1=O [Zidovudine]
- log Po ([6]; PAMPA): −6.24
- pKa (physchem [10]; pKa): 9.61
- Q (charge class) [4, 12]: 0

SMILES: N[C@H](Cc1ccc(F)cc1)C(=O)O [p-F-Phenylalanine(D)]
- PS [5]: 14 10^−4 mLg^−1s^−1
- log PS [5]: −2.85
- log Po^in situ (obs) [7]: −4.81
- log Po^in situ (obs) [8]: −4.84

SMILES: N[C@@H](Cc1ccc(F)cc1)C(=O)O [p-F-Phenylalanine(L)]
- log Po^in situ (obs) [7]: −3.45
- PS [9]: 347 10^−4 mLg^−1s^−1
- log PS [9]: −1.46
